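These data come from cells grown in 96-well plates and exposed to compound for 48 hours at five concentrations. GI50 marks 50% less growth. At the TGI there is no net growth.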
Experiments:
Experiment in all cases: NCI-60 cell line screen, 48 h
CAKI-1 renal = tested on: CAKI-1 renal
OVCAR-8 ovarian = tested on: OVCAR-8 ovarian
UACC-257 melanoma = tested on: UACC-257 melanoma
HCT-116 colon = tested on: HCT-116 colon
TK-10 renal = tested on: TK-10 renal
SK-OV-3 ovarian = tested on: SK-OV-3 ovarian
NCI-H460 lung = tested on: NCI-H460 lung
NCI-H23 lung = tested on: NCI-H23 lung
U251 CNS = tested on: U251 CNS
OVCAR-5 ovarian = tested on: OVCAR-5 ovarian

Structure (SMILES)	GI50 (CAKI-1 renal)	TGI (CAKI-1 renal)	GI50 (OVCAR-8 ovarian)	TGI (OVCAR-8 ovarian)	GI50 (UACC-257 melanoma)	TGI (UACC-257 melanoma)	GI50 (HCT-116 colon)	TGI (HCT-116 colon)	GI50 (TK-10 renal)	TGI (TK-10 renal)	GI50 (SK-OV-3 ovarian)	TGI (SK-OV-3 ovarian)	GI50 (NCI-H460 lung)	TGI (NCI-H460 lung)	GI50 (NCI-H23 lung)	TGI (NCI-H23 lung)	GI50 (U251 CNS)	TGI (U251 CNS)	GI50 (OVCAR-5 ovarian)	TGI (OVCAR-5 ovarian)
O=C1CCCCCCCC/C=C\CC(c2ccco2)O1 (stereo not drawn)	49.4 µM	> 100 µM	33.4 µM	> 100 µM	24.2 µM	72.5 µM	15.1 µM	29.5 µM	> 100 µM	> 100 µM	32.7 µM	> 100 µM	76.5 µM	> 100 µM	35.8 µM	> 100 µM	19.5 µM	48.2 µM	22.5 µM	> 100 µM
C=CC(=O)N1CCN(c2nc(=O)n(-c3c(C)ccnc3C(C)C)c3nc(-c4c(O)cccc4F)c(F)cc23)[C@@H](C)C1	40.3 µM	> 100 µM	30.9 µM	> 100 µM	> 56.2 µM	> 100 µM	15.1 µM	36.3 µM	23.8 µM	> 90.9 µM	> 77.8 µM	> 100 µM	43.4 µM	> 100 µM		> 47.2 µM	48.7 µM	> 100 µM	62.9 µM	> 100 µM
COc1ccc(-n2nnnc2-c2c[nH]c3c(F)cc(F)cc23)cc1	> 100 µM	> 100 µM	39.6 µM	> 100 µM	> 100 µM	> 100 µM	> 100 µM	> 100 µM	> 100 µM	> 100 µM	34.7 µM	> 100 µM	> 100 µM	> 100 µM	> 100 µM	> 100 µM	32.2 µM	> 100 µM	> 100 µM	> 100 µM
O=C(/C=C/c1cccnc1)NCCCCC1CCCN(C(=O)c2ccccc2)C1 (stereo not drawn)	9 µM	> 100 µM	< 0.01 µM	> 100 µM	> 76.8 µM	> 100 µM	< 0.01 µM	> 100 µM	> 100 µM	> 100 µM	> 91.7 µM	> 100 µM	0.0227 µM	> 100 µM	30.3 µM	> 100 µM	< 0.01 µM	> 100 µM		> 100 µM
Cc1ccccc1N=Nc1ccc(NC(=O)c2ccnn2C)c(C)c1	55.4 µM	> 100 µM	98.5 µM	> 100 µM	49 µM	> 100 µM	5.99 µM	> 100 µM	20.5 µM	> 100 µM	24 µM	> 100 µM	26.5 µM	> 100 µM	18.7 µM	> 100 µM	24 µM	> 100 µM	> 100 µM	> 100 µM
Clc1cc(Cc2cc(Cl)c(Cl)c3c2OCOC3)c2c(c1Cl)COCO2		49.7 µM		> 100 µM		> 100 µM		> 100 µM		> 100 µM		64.4 µM		> 100 µM		> 100 µM		> 100 µM		> 100 µM
COc1cc(C)c(Cl)cc1C1=NN(c2ccc(S(N)(=O)=O)cc2)C(/C=C/c2ccccc2)C1 (stereo not drawn)	2.7 µM	19.1 µM	3.33 µM	19.1 µM	3.58 µM	20.5 µM	1.9 µM	4.72 µM	3.25 µM	11.5 µM	3.74 µM	16.2 µM	2.43 µM	6.3 µM	2.02 µM	7.73 µM	3.12 µM	11.3 µM	4.04 µM	57.3 µM
CCCc1cc2c(=O)c(C(=O)OC)c[nH]c2cc1N(CC)CC	11.7 µM	29.1 µM	29.4 µM	95.7 µM	> 100 µM	> 100 µM	21.5 µM	59.1 µM	69.1 µM	> 100 µM	36.5 µM	> 100 µM	31.6 µM	> 100 µM	44.5 µM	> 100 µM	18.2 µM	39.8 µM	> 100 µM	> 100 µM

— PubChem BioAssay (NCI)
